Measurements from patent US20250296938A1, “Compounds that Interact with the Ras Superfamily for the Treatment of Cancers, Inflammatory Diseases, Rasopathies, and Fibrotic Disease” (SHY Therapeutics, LLC, priority 2018, published 2025).
Where two headings read alike, the source gives them in different places.

Tests used:
Experiment in all cases: Ras GTP binding domain inhibition assay (Cy3-GTP/Cy5-GTP competition)
[1] = biological target: T1, KRas G12D mutant (Homo sapiens, UniProt P01116, G12D); settings: 20 μM
T1 construct: fused on or other part: His tag, used for capture on nickel-coated plates
Method in brief: (§1)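 Ni-plate immobilised His-Ras, overnight 4 °C; cpd 20 μM (or dilution series for IC50), 1% DMSO, 3 h RT; optional His-Sos […] last hour; Cy3- or Cy5-GTP 100 nM, 45 min RT; 3× wash; bound fluorescence read.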

[2] = tested on: KRas Q61H mutant; set-up: species or system human; settings: 20 μM
Method in brief: as §1

[3] = tested on: KRas wild type; set-up: species or system human; settings: 20 μM; for KRas wild type % inh.: without SOS (Table 7A); for KRas wild type: % inh.: without SOS
Method in brief: as §1

[4] = tested on: KRas G12C mutant; set-up: species or system human; settings: 20 μM
Method in brief: as §1

[5] = with SOS (Table 7A), read-out: KRas G12D mutant + SOS: % inh.
[6] = without SOS (Table 7A), read-out: KRas G12D mutant: % inh.
[7] = with SOS, read-out: KRas G-12D mutant + SOS: % inh.
[8] = without SOS, read-out: KRas G12D mutant: % inh.

| SMILES | inhibition at 20 µM [1, 5] | inhibition at 20 µM [1, 6] | KRas Q61H mutant + SOS: % inh. ([2]; with SOS (Table 7A)) | KRas Q61H mutant: % inh. ([2]; without SOS (Table 7A)) | KRas wild type + SOS: % inh. ([3]; with SOS (Table 7A)) | KRas wild type % inh. [3] | KRas G12C mutant + SOS: % inh. ([4]; with SOS (Table 7A)) | KRas G12C mutant: % inh. ([4]; without SOS (Table 7A)) | inhibition at 20 µM [1, 7] | inhibition at 20 µM [1, 8] | KRas Q61H mutant + SOS: % inh. ([2]; with SOS) | KRas Q61H mutant: % inh. ([2]; without SOS) | KRas wild type + SOS: % inh. ([3]; with SOS) | KRas wild type: % inh. [3] | KRas G12C mutant + SOS: % inh. ([4]; with SOS) | KRas G12C mutant: % inh. ([4]; without SOS) |
| --- | --- | --- | --- | --- | --- | --- | --- | --- | --- | --- | --- | --- | --- | --- | --- | --- |
| CO[C@H]1CC[C@@H](Nc2nc(-c3nccn3C)nc3sc(-c4ccn(C(C)C)n4)c(C)c23)C1 [drawing 919] | 51 to 75% | 51 to 75% | D (76-100% inhibition) | D (76-100% inhibition) | D (76-100% inhibition) | D (76-100% inhibition) | D (76-100% inhibition) | C (51-75% inhibition) |  |  |  |  |  |  |  |  |
| COCCNc1nc(-c2nccn2C)nc2sc(-c3cccc(OC)c3Cl)c(-c3ccc(OC)cc3)c12 [drawing 874] |  |  |  |  |  |  |  |  | 51 to 75% | 1 to 25% | D (76-100% inhibition) | A (1-25% inhibition) | D (76-100% inhibition) | B (26-50% inhibition) | D (76-100% inhibition) | B (26-50% inhibition) |
| CO[C@H]1CC[C@@H](Nc2nc(-c3nccn3C)nc3sc(-c4ccn(C(C)C)n4)c(-c4ccccc4)c23)C1 [drawing 912] | 51 to 75% | 51 to 75% | D (76-100% inhibition) | D (76-100% inhibition) | D (76-100% inhibition) | D (76-100% inhibition) | D (76-100% inhibition) | C (51-75% inhibition) |  |  |  |  |  |  |  |  |
| COCCNc1nc(-c2nccn2C)nc2sc(-c3cc(OC)ccc3Cl)c(-c3ccccc3)c12 [drawing 871] |  |  |  |  |  |  |  |  | 1 to 25% | 26 to 50% | A (1-25% inhibition) | C (51-75% inhibition) | A (1-25% inhibition) | B (26-50% inhibition) | A (1-25% inhibition) | 0 (0% inhibition) |
| CO[C@H]1CC[C@@H](Nc2nc(-c3nccn3C)nc3sc(-c4ccn(C)n4)c(C)c23)C1 [drawing 915] | 51 to 75% | 26 to 50% | D (76-100% inhibition) | C (51-75% inhibition) | D (76-100% inhibition) | C (51-75% inhibition) | D (76-100% inhibition) | C (51-75% inhibition) |  |  |  |  |  |  |  |  |
| CO[C@H]1C[C@@H](Nc2nc(-c3nccn3C)nc3sccc23)C1 [drawing 903] | 76 to 100% | 76 to 100% | D (76-100% inhibition) | D (76-100% inhibition) | D (76-100% inhibition) | C (51-75% inhibition) | D (76-100% inhibition) | D (76-100% inhibition) |  |  |  |  |  |  |  |  |
| COc1cc(-c2sc3nc(-c4nccn4C)nc(N4CCC(OC)C4)c3c2-c2ccccc2)ccn1.Cl (centres unmarked) |  |  |  |  |  |  |  |  | 51 to 75% | 51 to 75% | C (51-75% inhibition) | C (51-75% inhibition) | C (51-75% inhibition) | C (51-75% inhibition) | D (76-100% inhibition) | C (51-75% inhibition) |
| COc1ccc(-c2c(-c3ccn(C)n3)sc3nc(-c4nccn4C)nc(N4CCC(OC)C4)c23)cc1 (centres unmarked) [drawing 868] |  |  |  |  |  |  |  |  | 1 to 25% | 0% | B (26-50% inhibition) | A (1-25% inhibition) | A (1-25% inhibition) | 0 (0% inhibition) | A (1-25% inhibition) | 0 (0% inhibition) |
| COCCNc1nc(-c2cn(C)cn2)nc2sc(-c3ccccc3Cl)c(-c3ccc(OC)cc3)c12 [drawing 873] |  |  |  |  |  |  |  |  | 76 to 100% | 26 to 50% | D (76-100% inhibition) | B (26-50% inhibition) | D (76-100% inhibition) | A (1-25% inhibition) | D (76-100% inhibition) | C (51-75% inhibition) |
| COc1c(O)nc(-c2ccccn2)nc1Oc1ccc(C(=O)N(C)C)cc1 [drawing 879] | 26 to 50% | 51 to 75% | B (26-50% inhibition) | B (26-50% inhibition) | A (1-25% inhibition) | B (26-50% inhibition) | A (1-25% inhibition) | B (26-50% inhibition) |  |  |  |  |  |  |  |  |

Now from value to compound:

| inhibition at 20 µM [1, 5] | inhibition at 20 µM [1, 6] | KRas Q61H mutant + SOS: % inh. ([2]; with SOS (Table 7A)) | KRas Q61H mutant: % inh. ([2]; without SOS (Table 7A)) | KRas wild type + SOS: % inh. ([3]; with SOS (Table 7A)) | KRas wild type % inh. [3] | KRas G12C mutant + SOS: % inh. ([4]; with SOS (Table 7A)) | KRas G12C mutant: % inh. ([4]; without SOS (Table 7A)) | inhibition at 20 µM [1, 7] | inhibition at 20 µM [1, 8] | KRas Q61H mutant + SOS: % inh. ([2]; with SOS) | KRas Q61H mutant: % inh. ([2]; without SOS) | KRas wild type + SOS: % inh. ([3]; with SOS) | KRas wild type: % inh. [3] | KRas G12C mutant + SOS: % inh. ([4]; with SOS) | KRas G12C mutant: % inh. ([4]; without SOS) | SMILES |
| --- | --- | --- | --- | --- | --- | --- | --- | --- | --- | --- | --- | --- | --- | --- | --- | --- |
|  |  |  |  |  |  |  |  | 51 to 75% | 51 to 75% | C (51-75% inhibition) | B (26-50% inhibition) | C (51-75% inhibition) | C (51-75% inhibition) | C (51-75% inhibition) | B (26-50% inhibition) | COC1CCN(c2nc(-c3nccn3C)nc3sc(-c4ccccc4Cl)c(-c4cscn4)c23)C1 (centres unmarked) [drawing 849] |
| 51 to 75% | 26 to 50% | C (51-75% inhibition) | B (26-50% inhibition) | C (51-75% inhibition) | B (26-50% inhibition) | C (51-75% inhibition) | B (26-50% inhibition) |  |  |  |  |  |  |  |  | COC1CCC(Nc2nc(-c3nccn3C)nc3sc(-c4cccc(O)c4F)c(-c4ccccc4)c23)C1 (centres unmarked) [drawing 885] |
|  |  |  |  |  |  |  |  | 51 to 75% | 26 to 50% | D (76-100% inhibition) | C (51-75% inhibition) | D (76-100% inhibition) | B (26-50% inhibition) | D (76-100% inhibition) | B (26-50% inhibition) | COc1nscc1-c1sc2nc(-c3nccn3C)nc(N3CCC(OC)C3)c2c1-c1ccccc1.Cl (centres unmarked) |
|  |  |  |  |  |  |  |  | 26 to 50% | 51 to 75% | C (51-75% inhibition) | C (51-75% inhibition) | B (26-50% inhibition) | C (51-75% inhibition) | C (51-75% inhibition) | C (51-75% inhibition) | COc1c(O)nc(-c2ccccn2)nc1Oc1ccc2ncccc2c1 [drawing 804] |
| 51 to 75% | 51 to 75% | C (51-75% inhibition) | D (76-100% inhibition) | C (51-75% inhibition) | C (51-75% inhibition) | C (51-75% inhibition) | C (51-75% inhibition) |  |  |  |  |  |  |  |  | CO[C@H]1C[C@@H](Nc2nc(-c3ccccn3)nc3sccc23)C1 [drawing 902] |
|  |  |  |  |  |  |  |  | 26 to 50% | 76 to 100% | C (51-75% inhibition) | A (1-25% inhibition) | B (26-50% inhibition) | D (76-100% inhibition) | C (51-75% inhibition) | C (51-75% inhibition) | Cc1cn(C)c(-c2nc(O)c3scc(-c4ccccn4)c3n2)n1 [drawing 807] |
| 76 to 100% | 76 to 100% | D (76-100% inhibition) | D (76-100% inhibition) | D (76-100% inhibition) | D (76-100% inhibition) | D (76-100% inhibition) | C (51-75% inhibition) |  |  |  |  |  |  |  |  | CO[C@H]1CC[C@@H](Nc2nc(-c3nccn3C)nc3sc(C(=O)NC(C)C)c(-c4ccccc4)c23)C1 [drawing 924] |
|  |  |  |  |  |  |  |  | 1 to 25% | 51 to 75% | B (26-50% inhibition) | B (26-50% inhibition) | A (1-25% inhibition) | B (26-50% inhibition) | A (1-25% inhibition) | A (1-25% inhibition) | CCN(CC)C(=O)c1nc(-c2nccn2C)nc(O)c1O [drawing 829] |
|  |  |  |  |  |  |  |  | 51 to 75% | 51 to 75% | C (51-75% inhibition) | D (76-100% inhibition) | B (26-50% inhibition) | D (76-100% inhibition) | C (51-75% inhibition) | B (26-50% inhibition) | O=C(NCc1ccccc1)c1nc(-c2ccccn2)nc(O)c1O [drawing 821] |
